Series [1] can be described thus: In vitro hepatic metabolic stability in MLS9 fraction with NADPH. The series is classed as in vitro ADME, mouse. Particulars: after 1 h of incubation. On the procedure:
The five selected inhibitors (22, 27, 29, 32, and 42) and the identified SOCE enhancer (37) were then evaluated for their in vitro hepatic metabolic stability. To this aim, the candidates were incubated in MLS9 fraction supplied with NADPH and the residual substrate was measured after 1 h. Under these conditions, the oxadiazole-bearing pyrazoles resulted overall metabolically stable, with only two compounds affording a residual substrate lower than 80% and the remaining molecules higher than 90% after incubation (Table 1 and Supporting Information). In contrast, Pyr3 and CIC-37, which suffered from hydrolysis of the ester function, provided a residual substrate of 43 and 74%, respectively (Table 1).[35] Similarly, the residual substrate of Synta66 in MLM is of 15%, due to an important hydrolysis of the amide group, absent in our class (Table 1).[39]
In vitro metabolism and purity of lead compounds
In vitro metabolism studies
Mouse liver S9 (MLS9) (pooled male mouse CD-1, protein concentration: 20 mg/mL) were purchased from Corning B.V. Life Sciences (Amsterdam, The Netherlands) and used throughout this study. The standard incubation mixture (250 μL final volume) was carried out in a 50 mM TRIS (tris[hydroxymethyl]-aminomethane) + 150 mM KCl buffer (pH 7.4) containing 3.3 mM MgCl2, 1.3 mM β-NADP-Na 2, 3.3 mM glucose 6-phosphate, 0.4 Units/mL glucose 6-phosphate dehydrogenase (NADPH regenerating system), 5 μL of acetonitrile ([…]), and the substrate compounds at a concentration of 50 µM. After pre-equilibration of the mixture, an appropriate volume of MLS9 suspension was added to give a final protein concentration of 1.5 mg/mL. The mixture was shaken for 60 min at 37 °C. Each incubation was stopped by addition of 250 μL of ice-cold acetonitrile, vortexed, and centrifuged at 13000 rpm for 10 min. Control incubations were carried out without the presence of MLS9 suspension or cofactors or in absence of the substrate.
LC-UV method for purity and metabolic stability data determination: a Shimadzu HPLC system (Shimadzu, Kyoto, Japan), consisting of two LC-10AD Vp module pumps, an SLC-10A Vp system controller, an SIL-10AD Vp autosampler, and a DGU-14-A on-line degasser were used for the analysis. The SPD-M10Avp photodiode array detector was used to detect the analytes. LC-Solution 1.24 software was used to process the chromatograms.
• Column: Phenomenex Kinetex XB C18, 150 × 4.6 mm (5 µm d.p.) protected with a SecurityGuard® (Torrance, CA, USA).
A: 0.2% formic acid in water;
B: 0.2% formic acid in acetonitrile.

Series [2] deals with Store-operated calcium entry (SOCE). Kind of series: SOCE in HEK cells, tBhQ store depletion and Ca2+ re-addition, Fura-2 calcium imaging. Type of series: cell-based, human. Particulars: for activity at 10 µM: HEK293, compound 10 μM, tBhQ 50 μM, mean ± SEM of three experiments, read-out: % SOCE residual activity (10 μM); for percentage of SOCE activity: compared to control. Here is the method: With this approach, 24 oxadiazole-bearing pyrazoles were synthesized and tested in human embryonic kidney (HEK) cells for SOCE inhibition. […] After 600 s, Ca^2+ was added and intracellular levels were measured in fluorescence microscopy with the calcium dye Fura-2. […] For these compounds, the cell viability was therefore evaluated. An MTT assay was performed and the compounds that affected cell viability by more than 25% at 10 μM were discarded (23, 31, and 33). […] According to both activity and cytotoxicity, for the selected five compounds, the representative traces are depicted in Figure 3.
Human embryonic kidney (Hek) cells were obtained from ATCC (Rockville, MD, USA) and were cultured in Dulbecco’s Modified Eagle’s Medium (DMEM; Sigma-Aldrich, Italy), supplemented with 10% heat-inactivated FBS (Gibco, Italy), L-glutamine […] (Sigma-Aldrich, Italy), 10 U/mL penicillin, and […] streptomycin (Sigma-Aldrich, Italy) at 37 °C, under a 5% CO2 humidified atmosphere. […]
(KRB, 135 mM NaCl, 5 mM KCl, 0.4 mM KH2PO4, 1 mM MgSO4, 5.5 mM glucose, 20mM HEPES, pH 7.4) containing 2 mM CaCl2 (30 min, room temperature). After which, cells were washed and incubated with KRB for other 30 min to allow de-esterification of […]. To measure SOCE, cells were depleted of calcium in the endoplasmic reticulum with 2,5-t-butylhydroquinone (tBhQ, 50 […]
For calcium imaging experiments, Hek cells were plated onto pre-treated poli-L-lysine (P4832, Sigma-Aldrich, Italy) glass coverslips of 24 mm in 6-well plates Cells were loaded with 5 µM of Fura-2 AM, 0.02% of Pluronic-127 (Life technologies, Italy) and 10 µM of sulfinpyrazone (Sigma-Aldrich, Italy) in KRB containing 2 mM CaCl2 for 30 min at RT. Cells were then washed once with KRB for 15 min for de-esterification of Fura-2 AM.
Coverslips were mounted into the acquisition chamber and placed on the stage of a Leica DMI6000 epifluorescent microscope equipped with S Fluor ×40/1.3 objective. Fura-2 AM was excited by alternate 340 and 380 nm using a Polychrome IV monochromator (Till Photonics, Germany), and the probe emission light was filtered through 520/20 bandpass filter and collected by a cooled CCD camera (Hamamatsu, Japan). The fluorescence signals were acquired and processed using MetaFluor software (Molecular Device, Sunnyvale, CA, USA). To quantify the differences in the amplitudes of Ca2+ transients, the ratio values were normalized using the formula ΔF/F0. […]
In calcium imaging experiments, data are presented as Mean +/- standard error (SEM) or Median and interquartile range (IQR). The normality of data distributions was assessed using the Shapiro−Wilk test. Nonparametric (Mann−Whitney U test and one-way) statistical analysis was used for comparisons of data. All statistical assessments were two-sided and a value of P <0.05 was considered statistically significant. Statistical analyses were performed using GraphPad Prism software (GraphPad Software, Inc., USA).

In series [3] the test system is HEK cells. Kind of series: MTT cell viability assay in HEK cells. The series is classed as cell-based, human. Particulars: 10 μM. On the procedure: (§1) With this approach, 24 oxadiazole-bearing pyrazoles were synthesized and tested in human embryonic kidney (HEK) cells for SOCE inhibition. To this aim, intracellular Ca^2+ stores of HEK cells were emptied with t-butylhydroquinone (tBhQ, 50 μM) in the presence of the compounds at 10 μM concentration. After 600 s, Ca^2+ was added and intracellular levels were measured in fluorescence microscopy with the calcium dye Fura-2. […] For these compounds, the cell viability was therefore evaluated. An MTT assay was performed and the compounds that affected cell viability by more than 25% at 10 μM were discarded (23, 31, and 33). […] According to both activity and cytotoxicity, for the selected five compounds, the representative traces are depicted in Figure 3. […]
(§2) 3-(4,5-Dimethylthiazol-2-yl)-2,5-diphenyltetrazolium bromide (MTT) assay Hek cells were plated in 24-wells plate at 20.000 cells per well. After 24 h, cells were treated for other 24 h with the selected compounds. At the end of treatments, medium was removed and substituted by 300 µL of MTT reagent at the final concentration of 0.25 mg/mL for 60 min at 37 °C. Reactions were then stopped and the crystals were solubilized by adding isopropyl alcohol/HCl (1:1; vol:vol) (Sigma-Aldrich Inc., Italy), before reading the absorbance at 570 nm, using the multi-plate reader Victor 3V (PerkinElmer, Milan, Italy). […]
(§3) All statistical assessments were two-sided and a value of P <0.05 was considered statistically significant. Statistical analyses were performed using GraphPad Prism software (GraphPad Software, Inc., USA).
(In general: Tetrazolium dyes change colour on reduction, which living cells bring about.)

Series [4] in a line: MTT cell viability assay in HEK cells. Type of series: cell-based, human. Particulars: human, mean ± SEM. Here is the method: as §1, §2, §3
In series [5] the test system is calcium entry in resting cells. Kind of series: Intracellular Ca2+ in resting cells in the presence of extracellular Ca2+. Type of series: cell-based, human. Particulars: 10 μM, extracellular Ca2+ present, 300 s of observation, compared to control. On the procedure:
We also investigated whether 37 required the triggered opening of the Orai channel to elicit its effect. […] The same effect was also evident at 3 (118.2%) and 1 μM (116.7%) but was not detected at concentrations above 10. In particular, at 30 and 100 μM, 37 acts as weak SOCE inhibitor, with a percentage of residual activity of about 70%.

Marks after values point to notes of the source that are not given here.

In the case of `Cc1ccc(S(=O)(=O)Nc2ccc(-n3ncc(-c4nc(C)no4)c3C(F)(F)F)cc2)cc1` [compound 42], the melting point fell in the range of 149 to 150 °C. In series [1], the “MLS9 stability (residual substrate)” value was 76% ^b. Further, the activity at 10 µM in series [2] (Homo sapiens, vs control) worked out at 47.6 ± 4.2%. Moreover, the 50% inhibitory concentration (IC50) in series [2] (Homo sapiens, HEK293, mean ± SEM) came out at 9.5 ± 1.7 µM. The cytotoxicity entry in series [3] was “not cytotoxic”. The compound further registered a viability at 24 h, 10 µM in series [4] of 79.4 ± 4.2%.

As to `CCCCCC(=O)Nc1ccc(-n2ncc(-c3nc(C)no3)c2C(F)(F)F)cc1` [compound 37], in series [1], the “MLS9 stability (residual substrate)” value came to 91% ^b. Also, the “calcium entry in resting cells” value in series [5] is “did not elicit any significant calcium entry”. In addition, the “percentage of SOCE activity” value in series [2] (1 μM) is listed as 116.7%. Besides, the “percentage of SOCE activity” value in series [2] (3 μM) amounted to 118.2%. Moreover, in series [2] (10 μM, vs control), the “area under the curve (AUC) of calcium entry” value is “significantly increased”, the “peak amplitude of calcium entry” value was “significantly increased” and the “slope of the Ca2+-rise” value is recorded as “without affecting”. The activity at 30 µM in series [2] (Homo sapiens, HEK293, 30 μM, read-out: percentage of residual activity (SOCE)) was roughly 70%. In addition, the activity at 100 µM in series [2] (Homo sapiens, HEK293, 100 μM, read-out: percentage of residual activity (SOCE)) is roughly 70%. Further, the activity at 10 µM in series [2] (Homo sapiens, vs control) was 146 ± 4.5%.

As a reminder, the IC50 is the concentration that inhibits the measured activity by half. The viability is the share of living cells, or the viability signal relative to a control. One may read the melting point as the temperature of the solid-liquid transition.

For the origin of these results see article PMC8040252, “1,2,4-Oxadiazole-Bearing Pyrazoles as Metabolically Stable Modulators of Store-Operated Calcium Entry” (ACS Medicinal Chemistry Letters, 2021).
